From patent publication US20240027479A1, “A Comprehensive Breath Test that Confirms Recent Use of Inhaled Cannabis within the Impairment Window” (RCU Labs, Inc., priority 2018, published 2024)
Where “and” joins values, the source holds several entries; their conditions need not be identical. Equal entries are not always repeated.

Assays:
[1] = Presence of cannabinoids in exhaled breath before and after smoking (LC-HRMS); format: in vivo, human
Method: (§1) The positive recent use test results outside of the three-hour impairment window based on blood sampling alone led to the incorporation of a second testing matrix, exhaled breath, to strengthen the results of the test method so that cannabis users who are within the impairment window after smoking can be more accurately identified. For this purpose, a total of 44 additional subjects were evaluated in a smoking study in which both exhaled breath and blood samples were collected and then analyzed by LC-HRMS for cannabinoids and Δ^9-THC metabolites. As with the 48-subject blood-based study, subjects were given a 500-mg cannabis cigarette to smoke, and breath and blood samples were collected at various time points before and after smoking.

[2] = Cannabinoid half-lives in exhaled breath, multi-point breath sampling; format: in vivo, human; settings: for Cannabinoid Half-Lives (min) in breath, back-to-back sampling: individual subject
Method: as §1
These included the presence of CBN, CBC, CBG, Δ^9-THCV, and CBGA, and short half-lives (<60 minutes) for Δ^9-THC, CBN, CBC, CBG, and Δ^9-THCV (see Table 5 below). […] Pre-smoking, half-lives were calculable for Δ^9-THC in only three subjects.
Evidence of recent cannabis use by inhalation through smoking or vaping dissipates rapidly in exhaled breath, and thus allowing 20 minutes between breath samplings, which was employed in the blood-based study and for most of the subjects in the blood and breath-based study, may result in the loss of valuable data. In the last nine subjects involved in the exhaled breath study, a back-to-back sample collection strategy was employed whereby two exhaled breath samples were collected in quick succession at 20 and 40 minutes post-smoking. Approximately two minutes elapsed between the collection of each sample. The very short half-lives observed for Δ^9-THC, CBN, and other cannabinoids (approximately five minutes or less) in exhaled breath would allow for rapid sampling (see Table 6 below).

[3] = separate 20-subject and 23-subject studies (Lynch; Olla); cited from earlier work
[4] = Breath/blood Δ^9-THC ratio; settings: all 44 subjects
Excerpt: We hypothesized that the incorporation of both exhaled breath and blood into a comprehensive recent cannabis use test would confirm recent use of inhaled cannabis within the impairment window, improving the accuracy of the two-point breath testing method. For this purpose, blood samples were collected from the 44 subjects in addition to breath samples and analyzed for Δ^9-THC and other cannabinoids. […] This ratio was computed by dividing the Δ^9-THC peak area ratio to the internal standard in breath by the corresponding peak area ratio in blood.

[5] = Stability of target analytes in the breath collection device; format: physicochemical
Excerpt: In particular, CBN, CBG, and Δ^9-THCV all have a much greater incidence in breath during peak impairment (the first hour after smoking) compared to pre-smoking. […] Stability of the analytes within the breath collection devices was previously established (see Table 4 below).

[6] = Cannabinoids and Δ^9-THC metabolites in capillary blood (LC-HRMS); settings: pre-smoking
Excerpt: The complex nature of cannabinoid pharmacokinetics and pharmacodynamics calls for a new approach for effectively determining recent use of cannabis within the impairment window. We sought to develop a multiple-parameter test based on pharmacological changes in Δ^9-THC and its metabolites in blood over time. This approach requires the collection of two samples separated by a known time interval, which is a critical difference compared to current blood testing methods that rely on the collection of a single sample. The two-sample strategy makes possible the detection of Δ^9-THC in its distribution phase where the half-life is very short [Moeller M R. et al., J Forensic Sci 37:969-83 (1992); Wall M E. et al., Clin Pharmacol Ther 34:352-63 (1983)], which occurs only within the first few hours after smoking, and for the evaluation of how Δ^9-THC metabolite levels in blood are changing with time relative to Δ^9-THC. A liquid chromatography high-resolution mass spectrometry (LC-HRMS) bioanalytical method for the quantification of cannabinoids in microsamples (50 μL) of whole blood was developed and validated for this purpose [DeGregorio M W. et al., J AOAC Int 103:725-35 (2020)].
A total of 92 subjects were included in clinical trials designed to evaluate the feasibility of the described method for determining recent cannabis use (blood-based study in 48 subjects) and recent cannabis use and impairment (breath- and blood-based study in 44 subjects). Each subject was given a single cannabis cigarette and instructed to smoke as much of it as possible within a 10-minute period. Cigarettes containing 500 mg of dried cannabis flower were prepared immediately before each smoking session. During the studies, subjects were given a variety of cannabis chemovars to smoke, with Δ^9-THC content ranging from a low of 8.5% to a high of 28.4%. A wide variety of chemovars was included to account for the variability in Δ^9-THC potencies available in numerous cannabis retail establishments in the various U.S. states where recreational and/or medicinal cannabis has been legalized. Capillary blood samples ([…] collected at various time points prior to smoking and up to 200 minutes after smoking, were obtained from a total of 92 subjects using a variety of methods including lancets and two types of automated blood collection devices. Exhaled breath samples were collected from a total of 44 subjects at various time points prior to smoking and up to 240 minutes post-smoking. Breath samples were collected using devices equipped with electrostatic polymer filters and that are designed to collect approximately 20 L of exhaled breath through normal breathing. The time required for breath sample collection was approximately 2-3 minutes. A total of 74 subjects were asked to self-assess their level of impairment before smoking and at each designated sampling time point after smoking based on a scale ranging from 0 (not impaired) to 10 (very impaired) as shown in FIG. 2. As a physical indicator of impairment, 44 subjects were evaluated for horizontal gaze nystagmus.
One of the first endpoints investigated during clinical development of the recent use test method was whether there is any relationship between blood Δ^9-THC levels and impairment. Prior to smoking, Δ^9-THC blood concentrations were evaluated in a group of 30 subjects before and up to 200 minutes after smoking a 500-mg cannabis cigarette and compared to a common legal limit (5 ng/mL) for establishing driver impairment due to cannabis.

**Q.** Which “Presence in exhaled breath, Percent (%) Positivity” value ([1]; >60 minutes after smoking) does the source give for `CCCCCc1cc(O)c2c(c1)OC(C)(C)[C@@H]1CCC(C)=C[C@@H]21` [Δ^9-THC, Δ^9-tetrahydrocannabinol] here?
**A.** The value was “(92.5%)”.

**Q.** What about the “Presence in exhaled breath, positive/evaluable subjects” value (“Presence … positive/evaluable subjects” for short) ([1]; >60 minutes after smoking) of the same compound?
**A.** Its value is 37/40.

**Q.** And the “Presence … positive/evaluable subjects” value ([1]; Baseline (Pre-smoking))?
**A.** The value was 23/34.

**Q.** And the “Presence in exhaled breath, Percent (%) Positivity” value ([1]; ≤60 minutes after smoking)?
**A.** The value was “(100%)”.

**Q.** What about the “Presence … positive/evaluable subjects” value ([1]; ≤60 minutes after smoking) of the same compound?
**A.** The value was 40/40.

**Q.** What about the “Average Half-Life (minutes ± SD) in breath” value ([2]; 0-10 Minutes Post-Smoking) of the same compound?
**A.** The value was 4.4 ± 2.2 min.

**Q.** And the “Average Half-Life (minutes ± SD) in breath” value ([2]; 0-20 Minutes Post-Smoking)?
**A.** Its value is 4.2 ± 2.1 min.

**Q.** And the “Average Half-Life (minutes ± SD) in breath” value ([2]; 20-40 Minutes Post-Smoking)?
**A.** The value was 8.1 ± 2.3 min.

**Q.** What about the “Average Half-Life (minutes ± SD) in breath” value ([2]; 20-60 Minutes Post-Smoking) of the same compound?
**A.** The value was 12.8 ± 8.8 min.

**Q.** What about the “Cannabinoid Half-Lives (min) in breath, back-to-back sampling, Average” value ([2]; 20 Minutes Post-Smoking) of the same compound?
**A.** Its value is 3.5 min and 2.2 min.

**Q.** What about the “Cannabinoid Half-Lives (min) in breath, back-to-back sampling” value ([2]; 20 Minutes Post-Smoking) of the same compound?
**A.** The value was 1.9 min (2×) and 2.3 min and 2.1 min and 2.9 min and 2.8 min and 1.0 min and 1.4 min and 1.6 min and 7.3 min and 3.8 min and 11.8 min and 1.2 min and 0.9 min.

**Q.** What about the “Average Half-Life (minutes ± SD) in breath” value ([2]; 40-60 Minutes Post-Smoking) of the same compound?
**A.** Its value is 24.4 ± 25.4 min.

**Q.** What about the “Cannabinoid Half-Lives (min) in breath, back-to-back sampling, Average” value ([2]; 40 Minutes Post-Smoking) of the same compound?
**A.** The value was 6.1 min.

**Q.** And the “Cannabinoid Half-Lives (min) in breath, back-to-back sampling” value ([2]; 40 Minutes Post-Smoking)?
**A.** The value was 2.2 min and 9.9 min and 3.7 min and 5.9 min and 8.6 min.

**Q.** What about the “Average Half-Life (minutes ± SD) in breath” value ([2]; 60-80 Minutes Post-Smoking) of the same compound?
**A.** Its value is 35.0 ± 41.7 min.

**Q.** And the “Average Half-Life (minutes ± SD) in breath” value ([2]; Pre-Smoking)?
**A.** Its value is 28.8 ± 28.7 min.

**Q.** And the “half-lives observed in exhaled breath” value ([2]; approximate, summary statement)?
**A.** The value was “five”.

**Q.** What about the “pre-smoking detection rates of Δ^9-THC in breath” value [3] of the same compound?
**A.** Its value is 100%.

**Q.** And the “breath/blood Δ^9-THC ratio” value ([4]; immediately after smoking)?
**A.** Its value is greater than 2.

**Q.** What about the “breath/blood Δ^9-THC ratio” value ([4]; within the first hour after smoking) of the same compound?
**A.** The value was no less than 2.

**Q.** What about the “Analyte Stability (%) at Room Temperature (20-25° C.)” value (“Analyte Stability (%)” for short) ([5]; Day 3, breath collection device) of the same compound?
**A.** The value was 91.3%.

**Q.** And the “Analyte Stability (%)” value ([5]; Day 7, breath collection device)?
**A.** Its value is 81.2%.

**Q.** What about the “Analyte Stability (%)” value ([5]; Day 10, breath collection device) of the same compound?
**A.** Its value is 82.9%.

**Q.** And the “Analyte Stability (%)” value ([5]; Day 14, breath collection device)?
**A.** The value was 66.2%.

**Q.** What about the “Analyte Stability (%)” value ([5]; Day 30, breath collection device) of the same compound?
**A.** Its value is 55.6%.

**Q.** What about the “detection in subjects' blood samples at baseline prior to smoking” value [6] of the same compound?
**A.** Its value is “detected”.

**Q.** And the “average baseline Δ^9-THC concentration in blood” value ([6]; 12-24 h abstinence, n=30)?
**A.** The value was 10.5 ± 15 ng/mL.

**Q.** What about the “baseline Δ^9-THC levels in blood” value ([6]; 16 of 30 subjects) of the same compound?
**A.** The value was “exceeded 5 ng/mL”.

**Q.** What about the “median baseline Δ^9-THC concentration in blood” value ([6]; n=30) of the same compound?
**A.** The value was 6.4 ng/mL.
